Blank lines part the entries; values can stand above or below the compound they belong to.
What was measured:
[1] = target: Mitogen-activated protein kinase kinase kinase 11 (Homo sapiens) (UniProt Q16584); assay: Selectivity interaction (KinomeScan (DiscoverX)) EUB0000666a MAP3K11; conditions: at 10 µM
[2] = target: T1, Inhibitor of nuclear factor kappa-B kinase subunit alpha (Homo sapiens) (UniProt O15111); conditions: at 1 µM
T1 sequence (whole entry): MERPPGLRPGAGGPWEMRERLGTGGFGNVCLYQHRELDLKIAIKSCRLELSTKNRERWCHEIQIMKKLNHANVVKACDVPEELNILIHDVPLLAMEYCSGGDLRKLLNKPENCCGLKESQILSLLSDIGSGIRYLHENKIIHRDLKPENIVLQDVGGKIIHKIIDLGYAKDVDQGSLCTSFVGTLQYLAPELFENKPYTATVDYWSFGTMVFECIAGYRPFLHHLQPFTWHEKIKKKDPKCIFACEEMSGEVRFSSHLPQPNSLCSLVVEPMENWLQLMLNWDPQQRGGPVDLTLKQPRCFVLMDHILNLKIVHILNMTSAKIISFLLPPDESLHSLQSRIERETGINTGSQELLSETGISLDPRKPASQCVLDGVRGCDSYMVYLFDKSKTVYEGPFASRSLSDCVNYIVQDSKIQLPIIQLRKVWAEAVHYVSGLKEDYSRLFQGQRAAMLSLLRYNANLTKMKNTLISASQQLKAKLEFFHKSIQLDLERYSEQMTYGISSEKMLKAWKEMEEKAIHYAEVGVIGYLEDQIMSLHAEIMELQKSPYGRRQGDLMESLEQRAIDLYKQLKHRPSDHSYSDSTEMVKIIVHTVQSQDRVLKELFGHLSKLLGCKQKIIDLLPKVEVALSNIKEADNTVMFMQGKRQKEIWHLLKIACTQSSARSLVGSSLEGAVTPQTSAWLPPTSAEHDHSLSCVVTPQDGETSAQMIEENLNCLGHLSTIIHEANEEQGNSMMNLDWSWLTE

[3] = target: Tyrosine-protein kinase FRK (Homo sapiens) (UniProt P42685); assay: Selectivity interaction (KinaseProfiler screening (Millipore)) EUB0000601a FRK; conditions: at 3 µM
Chain of Tyrosine-protein kinase FRK (Homo sapiens) (P42685 whole entry): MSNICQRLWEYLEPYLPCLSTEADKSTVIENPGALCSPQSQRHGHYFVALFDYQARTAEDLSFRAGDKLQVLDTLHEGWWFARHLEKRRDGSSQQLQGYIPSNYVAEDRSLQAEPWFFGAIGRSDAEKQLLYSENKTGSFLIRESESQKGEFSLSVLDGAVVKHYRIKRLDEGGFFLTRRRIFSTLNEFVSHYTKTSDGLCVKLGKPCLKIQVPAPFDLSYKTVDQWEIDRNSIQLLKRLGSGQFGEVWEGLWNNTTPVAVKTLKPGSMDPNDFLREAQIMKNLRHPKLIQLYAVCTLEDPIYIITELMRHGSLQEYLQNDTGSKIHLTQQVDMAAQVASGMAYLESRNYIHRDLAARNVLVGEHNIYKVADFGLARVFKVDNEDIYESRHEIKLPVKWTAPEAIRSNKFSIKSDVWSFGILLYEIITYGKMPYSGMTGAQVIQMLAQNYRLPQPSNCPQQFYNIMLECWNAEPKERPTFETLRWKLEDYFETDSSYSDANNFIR

[4] = target: Insulin receptor-related protein (Homo sapiens) (UniProt P14616); assay: Selectivity interaction (KinomeScan (DiscoverX)) EUB0000595a INSRR; conditions: at 10 µM
Chain of Insulin receptor-related protein (Homo sapiens) (P14616 27-742 limits assumed): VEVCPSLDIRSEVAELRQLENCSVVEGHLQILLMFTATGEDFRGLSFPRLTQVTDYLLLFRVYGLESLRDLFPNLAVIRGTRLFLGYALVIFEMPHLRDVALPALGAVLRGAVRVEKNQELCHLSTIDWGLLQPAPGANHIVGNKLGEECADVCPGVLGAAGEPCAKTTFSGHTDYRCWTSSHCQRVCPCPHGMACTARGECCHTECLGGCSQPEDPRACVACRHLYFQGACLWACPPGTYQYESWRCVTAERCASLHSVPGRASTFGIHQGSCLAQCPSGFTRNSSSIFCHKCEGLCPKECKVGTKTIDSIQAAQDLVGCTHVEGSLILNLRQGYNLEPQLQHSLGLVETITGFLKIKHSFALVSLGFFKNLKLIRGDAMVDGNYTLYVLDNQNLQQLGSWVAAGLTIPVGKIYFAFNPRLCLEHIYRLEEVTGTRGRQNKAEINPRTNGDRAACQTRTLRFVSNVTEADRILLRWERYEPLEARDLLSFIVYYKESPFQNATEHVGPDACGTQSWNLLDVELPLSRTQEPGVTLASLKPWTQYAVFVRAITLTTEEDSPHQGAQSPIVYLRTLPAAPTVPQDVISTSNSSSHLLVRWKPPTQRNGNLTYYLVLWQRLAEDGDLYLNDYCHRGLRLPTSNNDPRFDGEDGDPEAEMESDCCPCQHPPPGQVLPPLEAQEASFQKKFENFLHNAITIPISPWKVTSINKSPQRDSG
Chain of Insulin receptor-related protein (Homo sapiens) (P14616 747-1297 limits assumed): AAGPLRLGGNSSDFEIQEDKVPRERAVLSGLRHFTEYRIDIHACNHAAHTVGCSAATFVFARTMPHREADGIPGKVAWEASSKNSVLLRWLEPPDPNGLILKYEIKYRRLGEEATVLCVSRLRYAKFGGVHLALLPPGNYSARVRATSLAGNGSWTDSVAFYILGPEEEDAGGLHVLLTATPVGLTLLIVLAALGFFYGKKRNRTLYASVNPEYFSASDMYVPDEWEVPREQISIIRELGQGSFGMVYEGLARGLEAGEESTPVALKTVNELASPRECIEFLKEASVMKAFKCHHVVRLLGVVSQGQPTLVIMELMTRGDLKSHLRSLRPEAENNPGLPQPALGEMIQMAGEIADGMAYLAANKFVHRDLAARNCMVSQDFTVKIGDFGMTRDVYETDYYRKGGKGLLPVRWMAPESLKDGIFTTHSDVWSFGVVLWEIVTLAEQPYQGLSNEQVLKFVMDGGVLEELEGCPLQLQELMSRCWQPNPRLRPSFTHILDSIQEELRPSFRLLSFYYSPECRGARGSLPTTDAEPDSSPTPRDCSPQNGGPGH

[5] = target: Phosphatidylinositol 4,5-bisphosphate 3-kinase catalytic subunit beta isoform (Homo sapiens) (UniProt P42338); assay: Selectivity interaction (KinomeScan (DiscoverX)) EUB0001049a PIK3CB; conditions: at 1 µM
Chain of Phosphatidylinositol 4,5-bisphosphate 3-kinase catalytic subunit beta isoform (Homo sapiens) (P42338 whole entry, looked up, canonical isoform): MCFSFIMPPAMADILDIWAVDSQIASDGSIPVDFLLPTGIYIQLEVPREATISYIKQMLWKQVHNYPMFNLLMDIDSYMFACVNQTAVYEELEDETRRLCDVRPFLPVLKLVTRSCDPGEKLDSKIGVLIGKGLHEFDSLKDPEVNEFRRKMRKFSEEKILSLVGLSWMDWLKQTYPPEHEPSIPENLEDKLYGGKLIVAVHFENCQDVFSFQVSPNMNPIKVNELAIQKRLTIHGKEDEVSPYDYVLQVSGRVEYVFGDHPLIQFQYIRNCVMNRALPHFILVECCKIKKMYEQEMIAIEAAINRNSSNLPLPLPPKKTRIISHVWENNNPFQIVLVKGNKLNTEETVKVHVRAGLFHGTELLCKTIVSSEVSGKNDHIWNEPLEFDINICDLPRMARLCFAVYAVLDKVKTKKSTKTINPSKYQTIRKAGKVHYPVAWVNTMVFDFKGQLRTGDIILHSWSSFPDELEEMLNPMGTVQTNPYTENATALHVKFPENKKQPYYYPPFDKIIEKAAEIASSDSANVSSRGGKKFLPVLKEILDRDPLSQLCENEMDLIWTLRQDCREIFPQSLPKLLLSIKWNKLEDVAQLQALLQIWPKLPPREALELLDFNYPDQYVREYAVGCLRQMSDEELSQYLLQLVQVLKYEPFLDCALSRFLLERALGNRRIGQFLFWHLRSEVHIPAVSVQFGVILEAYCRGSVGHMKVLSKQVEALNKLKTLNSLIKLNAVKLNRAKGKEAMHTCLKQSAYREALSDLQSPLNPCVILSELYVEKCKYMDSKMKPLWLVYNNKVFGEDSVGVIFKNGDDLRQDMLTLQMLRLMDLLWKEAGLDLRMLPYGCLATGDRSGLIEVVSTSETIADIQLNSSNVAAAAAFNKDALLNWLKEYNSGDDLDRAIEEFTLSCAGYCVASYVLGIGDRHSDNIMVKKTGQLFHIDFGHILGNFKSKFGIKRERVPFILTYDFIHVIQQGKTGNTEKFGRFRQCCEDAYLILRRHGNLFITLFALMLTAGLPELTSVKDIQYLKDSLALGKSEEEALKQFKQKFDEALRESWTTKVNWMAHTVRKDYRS

[6] = target: Activin receptor type-2A (Homo sapiens) (UniProt P27037); assay: Selectivity interaction (KinomeScan (DiscoverX)) EUB0000655a ACVR2A; conditions: at 10 µM
Chain of Activin receptor type-2A (Homo sapiens) (P27037 whole entry): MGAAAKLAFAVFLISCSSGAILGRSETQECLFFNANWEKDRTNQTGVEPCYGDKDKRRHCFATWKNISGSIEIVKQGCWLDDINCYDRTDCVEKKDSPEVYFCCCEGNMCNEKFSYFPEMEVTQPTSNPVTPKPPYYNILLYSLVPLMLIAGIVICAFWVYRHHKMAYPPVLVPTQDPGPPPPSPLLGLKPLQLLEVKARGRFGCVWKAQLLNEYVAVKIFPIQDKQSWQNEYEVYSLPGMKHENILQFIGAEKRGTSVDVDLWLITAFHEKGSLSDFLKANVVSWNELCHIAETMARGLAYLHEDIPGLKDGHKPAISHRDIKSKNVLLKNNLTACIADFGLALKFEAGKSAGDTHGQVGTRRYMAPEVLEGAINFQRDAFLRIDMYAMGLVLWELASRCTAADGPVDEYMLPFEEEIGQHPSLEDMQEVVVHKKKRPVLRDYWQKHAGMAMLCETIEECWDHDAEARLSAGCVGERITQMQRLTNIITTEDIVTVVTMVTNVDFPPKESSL

[7] = target: Serine/threonine-protein kinase B-raf (Homo sapiens) (UniProt P15056); assay: Selectivity interaction (KinomeScan (DiscoverX)) EUB0000092b BRAF; conditions: at 10 µM
Chain of Serine/threonine-protein kinase B-raf (Homo sapiens) (P15056 whole entry): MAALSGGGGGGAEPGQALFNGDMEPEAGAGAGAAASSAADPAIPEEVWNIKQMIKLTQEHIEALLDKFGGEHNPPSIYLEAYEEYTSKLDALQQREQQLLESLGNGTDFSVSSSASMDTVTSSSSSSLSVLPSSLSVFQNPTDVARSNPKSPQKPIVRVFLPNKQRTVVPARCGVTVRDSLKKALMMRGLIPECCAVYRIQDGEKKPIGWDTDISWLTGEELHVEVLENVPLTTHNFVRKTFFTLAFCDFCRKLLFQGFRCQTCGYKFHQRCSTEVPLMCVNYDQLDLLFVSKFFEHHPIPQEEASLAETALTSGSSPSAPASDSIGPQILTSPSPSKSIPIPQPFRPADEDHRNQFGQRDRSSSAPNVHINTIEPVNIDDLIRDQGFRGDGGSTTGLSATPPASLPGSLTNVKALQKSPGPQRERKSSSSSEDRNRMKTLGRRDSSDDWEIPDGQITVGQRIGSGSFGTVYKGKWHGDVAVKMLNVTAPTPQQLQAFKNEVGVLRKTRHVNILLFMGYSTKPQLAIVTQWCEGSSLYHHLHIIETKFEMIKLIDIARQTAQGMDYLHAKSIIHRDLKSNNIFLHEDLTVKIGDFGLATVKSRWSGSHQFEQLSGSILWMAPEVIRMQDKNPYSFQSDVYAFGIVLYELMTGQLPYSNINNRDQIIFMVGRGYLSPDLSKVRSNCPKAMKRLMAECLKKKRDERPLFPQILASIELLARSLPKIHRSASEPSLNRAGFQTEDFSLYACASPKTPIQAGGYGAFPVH

[8] = target: T2, Mitogen-activated protein kinase kinase kinase 12 (Homo sapiens) (UniProt Q12852); conditions: at 10 µM
T2 sequence (whole entry): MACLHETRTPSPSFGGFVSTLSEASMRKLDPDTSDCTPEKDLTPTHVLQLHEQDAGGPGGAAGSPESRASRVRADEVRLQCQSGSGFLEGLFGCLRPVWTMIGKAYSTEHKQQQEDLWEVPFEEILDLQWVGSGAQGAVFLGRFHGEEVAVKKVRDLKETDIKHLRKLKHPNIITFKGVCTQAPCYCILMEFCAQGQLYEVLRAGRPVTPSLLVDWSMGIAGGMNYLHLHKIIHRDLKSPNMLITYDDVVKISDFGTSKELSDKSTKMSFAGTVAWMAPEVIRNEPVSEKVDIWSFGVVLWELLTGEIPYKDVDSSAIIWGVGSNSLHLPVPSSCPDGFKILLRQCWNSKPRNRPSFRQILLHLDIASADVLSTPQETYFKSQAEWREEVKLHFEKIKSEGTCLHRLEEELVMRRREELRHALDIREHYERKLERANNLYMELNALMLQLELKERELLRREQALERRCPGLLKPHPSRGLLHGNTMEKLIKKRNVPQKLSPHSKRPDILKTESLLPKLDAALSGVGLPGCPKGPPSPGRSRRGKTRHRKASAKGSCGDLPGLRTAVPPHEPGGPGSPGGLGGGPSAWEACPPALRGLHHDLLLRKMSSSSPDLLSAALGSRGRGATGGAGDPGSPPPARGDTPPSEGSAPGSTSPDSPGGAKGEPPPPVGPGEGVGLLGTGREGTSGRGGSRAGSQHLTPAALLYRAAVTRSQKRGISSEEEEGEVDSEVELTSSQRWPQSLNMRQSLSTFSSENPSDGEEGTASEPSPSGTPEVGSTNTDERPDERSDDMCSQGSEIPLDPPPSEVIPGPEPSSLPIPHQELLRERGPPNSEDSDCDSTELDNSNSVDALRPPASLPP

[9] = target: T3, Serine/threonine-protein kinase PLK4 (Homo sapiens) (UniProt O00444); assay: Selectivity interaction (KinomeScan (DiscoverX)) EUB0001619a PLK4; conditions: at 1 µM
T3 sequence (whole entry): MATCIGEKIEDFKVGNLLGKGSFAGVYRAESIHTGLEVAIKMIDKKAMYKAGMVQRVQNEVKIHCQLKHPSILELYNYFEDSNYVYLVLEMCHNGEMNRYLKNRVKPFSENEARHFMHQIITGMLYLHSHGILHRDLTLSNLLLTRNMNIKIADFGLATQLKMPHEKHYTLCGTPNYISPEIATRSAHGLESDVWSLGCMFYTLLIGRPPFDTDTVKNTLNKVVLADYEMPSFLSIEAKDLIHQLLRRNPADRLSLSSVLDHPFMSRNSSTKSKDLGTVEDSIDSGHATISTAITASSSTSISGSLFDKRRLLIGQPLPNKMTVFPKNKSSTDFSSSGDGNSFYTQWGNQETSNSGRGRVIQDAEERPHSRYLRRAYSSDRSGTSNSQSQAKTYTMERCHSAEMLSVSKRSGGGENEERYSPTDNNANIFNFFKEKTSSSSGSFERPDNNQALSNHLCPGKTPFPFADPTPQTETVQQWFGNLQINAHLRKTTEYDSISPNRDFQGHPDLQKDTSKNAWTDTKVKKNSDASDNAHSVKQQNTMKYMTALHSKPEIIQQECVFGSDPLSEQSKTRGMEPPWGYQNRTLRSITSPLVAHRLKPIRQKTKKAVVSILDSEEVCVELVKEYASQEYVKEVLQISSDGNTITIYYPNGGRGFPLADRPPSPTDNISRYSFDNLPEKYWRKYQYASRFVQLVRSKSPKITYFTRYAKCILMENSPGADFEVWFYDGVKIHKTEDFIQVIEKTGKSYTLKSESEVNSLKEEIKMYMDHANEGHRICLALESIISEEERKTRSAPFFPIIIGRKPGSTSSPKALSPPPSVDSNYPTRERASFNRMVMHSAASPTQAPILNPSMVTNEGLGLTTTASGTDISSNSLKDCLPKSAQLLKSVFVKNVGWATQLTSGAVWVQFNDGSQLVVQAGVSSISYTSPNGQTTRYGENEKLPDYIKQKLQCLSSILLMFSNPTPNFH

Chain of Mitogen-activated protein kinase kinase kinase 11 (Homo sapiens) (Q16584 whole entry, looked up): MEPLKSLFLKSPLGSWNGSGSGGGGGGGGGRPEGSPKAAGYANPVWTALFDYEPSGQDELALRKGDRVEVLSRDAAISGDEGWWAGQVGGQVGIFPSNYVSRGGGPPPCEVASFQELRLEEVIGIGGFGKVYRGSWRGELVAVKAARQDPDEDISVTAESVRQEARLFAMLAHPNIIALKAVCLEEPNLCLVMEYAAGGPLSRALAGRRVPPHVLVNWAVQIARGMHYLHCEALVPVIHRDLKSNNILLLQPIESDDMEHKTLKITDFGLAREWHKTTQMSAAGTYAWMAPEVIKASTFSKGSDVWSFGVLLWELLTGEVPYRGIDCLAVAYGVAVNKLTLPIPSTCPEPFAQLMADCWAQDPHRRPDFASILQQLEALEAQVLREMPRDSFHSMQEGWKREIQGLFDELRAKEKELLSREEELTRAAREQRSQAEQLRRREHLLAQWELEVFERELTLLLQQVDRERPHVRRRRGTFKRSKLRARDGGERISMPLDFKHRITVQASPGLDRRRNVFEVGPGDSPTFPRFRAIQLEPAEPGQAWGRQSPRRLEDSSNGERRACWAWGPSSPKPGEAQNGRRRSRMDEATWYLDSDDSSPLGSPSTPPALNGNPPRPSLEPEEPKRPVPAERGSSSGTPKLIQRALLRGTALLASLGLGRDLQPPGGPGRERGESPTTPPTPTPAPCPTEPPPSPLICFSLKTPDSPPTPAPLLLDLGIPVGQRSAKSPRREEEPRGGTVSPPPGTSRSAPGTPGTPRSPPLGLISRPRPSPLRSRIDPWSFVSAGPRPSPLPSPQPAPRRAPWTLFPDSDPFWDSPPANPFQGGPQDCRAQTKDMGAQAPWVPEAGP

SMILES: O=C(NOC[C@H](O)CO)c1ccc(F)c(F)c1Nc1ccc(I)cc1F
% of control [1]: 100%

% of inhibition [2]: -5%
SMILES: Cc1ccc(-c2ccc3c(ccc4sc5c(c43)NC[C@@H](C)NC5=O)n2)cn1

% of inhibition [3]: 97%
SMILES: CCc1cc(Nc2nccc(-c3c(-c4ccc(OC)c(C(=O)Nc5c(F)cccc5F)c4)nc4ccccn34)n2)c(OC)cc1N1CCC(N2CCN(S(C)(=O)=O)CC2)CC1

SMILES: COCC(=O)NC/C=C/c1ccc2ncnc(Nc3ccc(Oc4ccc(C)nc4)c(C)c3)c2c1 [CP-724714]
% of control [4]: 100%

SMILES: COc1cc(Nc2nc(C)cc(-c3cnn4nc(OC)ccc34)n2)cc(C(F)(F)F)c1
% of control [5]: 55%

SMILES: CN(C)CCOc1ccc(-c2nc(-c3ccncc3)c(-c3ccc4c(c3)CC/C4=N\O)[nH]2)cc1
% of control [6]: 100%

SMILES: CCC(=O)N1CCN(c2ccc(-n3c(=O)ccc4cnc5ccc(-c6cnc7ccccc7c6)cc5c43)cc2C(F)(F)F)CC1
% of control [7]: 59%

SMILES: Cc1cc([C@@H](C)Nc2ccccc2C(=O)O)c2nc(N3CCOCC3)cc(=O)n2c1 [AZD-6482]
% of control [8]: 85%

SMILES: N#Cc1cccc(-c2c[nH]c3ncnc(N4CCOCC4)c23)c1
% of control [9]: 33%
